Tests used:
[1] = target: Tyrosine-protein kinase ABL1 (Homo sapiens) (UniProt P00519); test: Inhibition of His tagged recombinant full length human ABL1 expressed in baculovirus at 500 nM by Z'-LYTE assay
[2] = target: Tyrosine-protein kinase Blk (Homo sapiens) (UniProt P51451); test: Inhibition of His tagged recombinant full length human BLK expressed in baculovirus at 500 nM by Z'-LYTE assay
[3] = target: Serine/threonine-protein kinase B-raf (Homo sapiens) (UniProt P15056); test: Inhibition of GST tagged recombinant full length human BRAF expressed in baculovirus at 500 nM by Z'-LYTE assay
[4] = target: Macrophage colony-stimulating factor 1 receptor (Homo sapiens) (UniProt P07333); test: Inhibition of His tagged recombinant human FMS cytoplasmic domain (538 to 910 residues) expressed in baculovirus at 500 nM by Z'-LYTE assay
[5] = target: Ephrin type-A receptor 1 (Homo sapiens) (UniProt P21709); test: Inhibition of GST tagged recombinant human EPHA1 cytoplasmic domain (568 to 976 residues) expressed in baculovirus at 500 nM by Z'-LYTE assay
[6] = target: Receptor tyrosine-protein kinase erbB-2 (Homo sapiens) (UniProt P04626); test: Inhibition of His tagged recombinant human ErbB2 cytoplasmic domain (676 to 1255 residues) expressed in baculovirus at 500 nM by Z'-LYTE assay
Sequence of Receptor tyrosine-protein kinase erbB-2 (Homo sapiens) (P04626 whole entry, the tested form may be a part): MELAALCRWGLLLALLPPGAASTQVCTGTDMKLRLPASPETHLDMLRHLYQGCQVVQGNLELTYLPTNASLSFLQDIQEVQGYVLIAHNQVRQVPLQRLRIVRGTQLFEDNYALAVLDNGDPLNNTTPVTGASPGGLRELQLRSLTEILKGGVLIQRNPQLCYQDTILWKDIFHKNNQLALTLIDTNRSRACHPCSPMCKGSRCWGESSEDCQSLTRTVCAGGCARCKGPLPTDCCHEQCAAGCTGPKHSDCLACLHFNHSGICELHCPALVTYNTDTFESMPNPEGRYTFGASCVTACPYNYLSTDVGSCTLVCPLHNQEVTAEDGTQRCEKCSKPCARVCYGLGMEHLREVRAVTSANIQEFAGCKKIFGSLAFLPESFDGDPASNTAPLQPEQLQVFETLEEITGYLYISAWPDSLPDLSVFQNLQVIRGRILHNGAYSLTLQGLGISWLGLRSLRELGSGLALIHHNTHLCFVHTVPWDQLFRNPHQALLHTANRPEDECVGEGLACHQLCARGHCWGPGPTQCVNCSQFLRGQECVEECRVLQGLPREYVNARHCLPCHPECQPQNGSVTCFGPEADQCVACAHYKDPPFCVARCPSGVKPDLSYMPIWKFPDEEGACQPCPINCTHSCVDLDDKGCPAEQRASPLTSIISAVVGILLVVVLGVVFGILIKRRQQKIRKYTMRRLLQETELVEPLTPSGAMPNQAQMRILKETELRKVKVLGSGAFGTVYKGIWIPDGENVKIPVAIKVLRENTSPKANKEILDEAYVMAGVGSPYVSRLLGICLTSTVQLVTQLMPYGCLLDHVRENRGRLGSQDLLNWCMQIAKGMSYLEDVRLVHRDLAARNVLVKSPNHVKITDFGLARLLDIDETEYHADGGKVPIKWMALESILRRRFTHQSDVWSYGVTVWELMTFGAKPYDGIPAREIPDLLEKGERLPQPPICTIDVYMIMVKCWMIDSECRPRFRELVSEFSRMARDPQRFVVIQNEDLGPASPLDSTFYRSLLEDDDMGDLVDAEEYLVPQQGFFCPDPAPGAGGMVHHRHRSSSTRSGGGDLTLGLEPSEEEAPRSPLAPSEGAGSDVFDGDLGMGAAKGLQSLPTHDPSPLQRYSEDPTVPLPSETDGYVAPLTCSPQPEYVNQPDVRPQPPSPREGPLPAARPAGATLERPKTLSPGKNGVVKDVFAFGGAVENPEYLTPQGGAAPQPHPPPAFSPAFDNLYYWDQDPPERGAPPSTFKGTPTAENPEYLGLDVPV

[7] = target: Tyrosine-protein kinase Fgr (Homo sapiens) (UniProt P09769); test: Inhibition of recombinant full length human C-terminal His-tagged FGR expressed in baculovirus at 500 nM by Z'-LYTE assay
[8] = target: Vascular endothelial growth factor receptor 3 (Homo sapiens) (UniProt P35916); test: Inhibition of GST tagged recombinant human FLT4 cytoplasmic domain (800 to 1297 residues) expressed in baculovirus at 500 nM by Z'-LYTE assay
[9] = target: Tyrosine-protein kinase FRK (Homo sapiens) (UniProt P42685); test: Inhibition of GST tagged recombinant full length human FRK expressed in baculovirus at 500 nM by Z'-LYTE assay
Sequence of Tyrosine-protein kinase FRK (Homo sapiens) (P42685 whole entry): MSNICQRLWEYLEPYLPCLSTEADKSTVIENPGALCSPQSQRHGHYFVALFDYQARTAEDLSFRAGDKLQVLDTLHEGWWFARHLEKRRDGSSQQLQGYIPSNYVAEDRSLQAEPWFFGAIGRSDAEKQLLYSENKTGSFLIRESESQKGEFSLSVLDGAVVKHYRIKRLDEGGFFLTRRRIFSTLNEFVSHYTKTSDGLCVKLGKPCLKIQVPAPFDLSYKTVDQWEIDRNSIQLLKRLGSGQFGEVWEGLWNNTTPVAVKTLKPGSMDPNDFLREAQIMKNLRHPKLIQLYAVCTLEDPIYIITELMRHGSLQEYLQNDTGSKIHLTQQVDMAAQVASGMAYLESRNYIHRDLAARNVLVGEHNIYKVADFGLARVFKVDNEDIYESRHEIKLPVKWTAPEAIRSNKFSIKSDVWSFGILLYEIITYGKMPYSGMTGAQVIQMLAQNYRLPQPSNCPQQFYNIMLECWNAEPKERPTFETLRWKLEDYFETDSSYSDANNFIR

[10] = target: Tyrosine-protein kinase Fyn (Homo sapiens) (UniProt P06241); test: Inhibition of recombinant full length human C-terminal His-tagged FYN expressed in baculovirus at 500 nM by Z'-LYTE assay
[11] = target: Mast/stem cell growth factor receptor Kit (Homo sapiens) (UniProt P10721); test: Inhibition of His tagged recombinant human KIT cytoplasmic domain (544 to 976 residues) expressed in baculovirus at 500 nM by Z'-LYTE assay
[12] = target: Tyrosine-protein kinase Lyn (Homo sapiens) (UniProt P07948); test: Inhibition of recombinant full length human N-terminal GST tagged LYN A expressed in insect cells at 500 nM by Z'-LYTE assay
Sequence of Tyrosine-protein kinase Lyn (Homo sapiens) (P07948 2-512 limits assumed): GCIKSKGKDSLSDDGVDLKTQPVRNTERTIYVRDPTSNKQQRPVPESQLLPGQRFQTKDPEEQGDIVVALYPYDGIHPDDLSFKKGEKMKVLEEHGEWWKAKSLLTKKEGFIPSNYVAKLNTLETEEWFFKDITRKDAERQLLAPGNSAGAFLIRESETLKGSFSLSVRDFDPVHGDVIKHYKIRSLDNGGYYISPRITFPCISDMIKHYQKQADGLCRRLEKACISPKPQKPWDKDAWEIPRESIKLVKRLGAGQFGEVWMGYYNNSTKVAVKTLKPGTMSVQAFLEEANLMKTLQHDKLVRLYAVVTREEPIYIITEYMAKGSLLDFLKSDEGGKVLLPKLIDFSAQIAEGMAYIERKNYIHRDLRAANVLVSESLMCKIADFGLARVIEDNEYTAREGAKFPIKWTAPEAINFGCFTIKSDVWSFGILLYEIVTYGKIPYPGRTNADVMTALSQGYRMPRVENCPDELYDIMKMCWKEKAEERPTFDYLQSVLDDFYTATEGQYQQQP

[13] = target: Tyrosine-protein kinase Lyn (Homo sapiens) (UniProt P07948); test: Inhibition of His tagged C-terminal recombinant full length human LYN B expressed in baculovirus at 500 nM by Z'-LYTE assay
[14] = target: Mitogen-activated protein kinase 1 (Homo sapiens) (UniProt P28482); test: Inhibition of GST tagged recombinant full length human ERK2 expressed in Escherichia coli at 500 nM by Z'-LYTE assay
[15] = target: Mitogen-activated protein kinase 14 (Homo sapiens) (UniProt Q16539); test: Inhibition of GST tagged recombinant full length human p38 alpha expressed in Escherichia coli at 500 nM by Z'-LYTE assay
[16] = target: Mitogen-activated protein kinase 8 (Homo sapiens) (UniProt P45983); test: Inhibition of His tagged recombinant full length human JNK1 expressed in baculovirus at 500 nM by Z'-LYTE assay
[17] = target: Proto-oncogene tyrosine-protein kinase Src (Homo sapiens) (UniProt P12931); test: Inhibition of recombinant full length human C-terminal His-tagged SRC expressed in baculovirus at 500 nM by Z'-LYTE assay
Sequence of Proto-oncogene tyrosine-protein kinase Src (Homo sapiens) (P12931 2-536 limits assumed): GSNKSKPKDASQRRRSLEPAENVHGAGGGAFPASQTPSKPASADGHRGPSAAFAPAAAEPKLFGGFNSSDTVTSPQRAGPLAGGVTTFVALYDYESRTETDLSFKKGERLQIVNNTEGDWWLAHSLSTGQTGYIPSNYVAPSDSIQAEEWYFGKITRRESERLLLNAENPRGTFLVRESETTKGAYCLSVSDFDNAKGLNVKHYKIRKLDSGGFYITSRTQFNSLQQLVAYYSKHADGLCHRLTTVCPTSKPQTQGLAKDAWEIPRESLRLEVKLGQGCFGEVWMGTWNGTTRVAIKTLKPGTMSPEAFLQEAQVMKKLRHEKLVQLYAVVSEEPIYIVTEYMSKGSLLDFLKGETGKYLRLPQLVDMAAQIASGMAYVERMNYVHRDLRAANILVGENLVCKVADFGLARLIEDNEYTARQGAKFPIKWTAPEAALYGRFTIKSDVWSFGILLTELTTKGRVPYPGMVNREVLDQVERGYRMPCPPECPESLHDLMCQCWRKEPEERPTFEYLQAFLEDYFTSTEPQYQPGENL

[18] = target: Testis-specific serine/threonine-protein kinase 2 (Homo sapiens) (UniProt Q96PF2); test: Inhibition of His tagged recombinant full length human STK22B expressed in baculovirus at 500 nM by Z'-LYTE assay
Sequence of Testis-specific serine/threonine-protein kinase 2 (Homo sapiens) (Q96PF2 whole entry, the tested form may be a part): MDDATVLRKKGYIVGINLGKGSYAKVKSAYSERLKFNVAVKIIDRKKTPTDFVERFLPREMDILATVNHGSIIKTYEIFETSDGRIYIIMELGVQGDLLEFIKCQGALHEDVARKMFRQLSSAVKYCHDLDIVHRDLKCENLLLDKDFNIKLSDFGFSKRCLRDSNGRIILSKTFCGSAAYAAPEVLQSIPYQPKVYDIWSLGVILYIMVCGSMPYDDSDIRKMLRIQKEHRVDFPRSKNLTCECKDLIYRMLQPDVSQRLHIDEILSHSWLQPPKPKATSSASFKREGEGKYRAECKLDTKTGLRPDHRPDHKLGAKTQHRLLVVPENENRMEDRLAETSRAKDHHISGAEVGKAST

[19] = target: Angiopoietin-1 receptor (Homo sapiens) (UniProt Q02763); test: Inhibition of GST tagged recombinant human Tie2 cytoplasmic domain (817 to 1101 residues) expressed in baculovirus at 500 nM by Z'-LYTE assay
Sequence of Angiopoietin-1 receptor (Homo sapiens) (Q02763 whole entry, the tested form may be a part): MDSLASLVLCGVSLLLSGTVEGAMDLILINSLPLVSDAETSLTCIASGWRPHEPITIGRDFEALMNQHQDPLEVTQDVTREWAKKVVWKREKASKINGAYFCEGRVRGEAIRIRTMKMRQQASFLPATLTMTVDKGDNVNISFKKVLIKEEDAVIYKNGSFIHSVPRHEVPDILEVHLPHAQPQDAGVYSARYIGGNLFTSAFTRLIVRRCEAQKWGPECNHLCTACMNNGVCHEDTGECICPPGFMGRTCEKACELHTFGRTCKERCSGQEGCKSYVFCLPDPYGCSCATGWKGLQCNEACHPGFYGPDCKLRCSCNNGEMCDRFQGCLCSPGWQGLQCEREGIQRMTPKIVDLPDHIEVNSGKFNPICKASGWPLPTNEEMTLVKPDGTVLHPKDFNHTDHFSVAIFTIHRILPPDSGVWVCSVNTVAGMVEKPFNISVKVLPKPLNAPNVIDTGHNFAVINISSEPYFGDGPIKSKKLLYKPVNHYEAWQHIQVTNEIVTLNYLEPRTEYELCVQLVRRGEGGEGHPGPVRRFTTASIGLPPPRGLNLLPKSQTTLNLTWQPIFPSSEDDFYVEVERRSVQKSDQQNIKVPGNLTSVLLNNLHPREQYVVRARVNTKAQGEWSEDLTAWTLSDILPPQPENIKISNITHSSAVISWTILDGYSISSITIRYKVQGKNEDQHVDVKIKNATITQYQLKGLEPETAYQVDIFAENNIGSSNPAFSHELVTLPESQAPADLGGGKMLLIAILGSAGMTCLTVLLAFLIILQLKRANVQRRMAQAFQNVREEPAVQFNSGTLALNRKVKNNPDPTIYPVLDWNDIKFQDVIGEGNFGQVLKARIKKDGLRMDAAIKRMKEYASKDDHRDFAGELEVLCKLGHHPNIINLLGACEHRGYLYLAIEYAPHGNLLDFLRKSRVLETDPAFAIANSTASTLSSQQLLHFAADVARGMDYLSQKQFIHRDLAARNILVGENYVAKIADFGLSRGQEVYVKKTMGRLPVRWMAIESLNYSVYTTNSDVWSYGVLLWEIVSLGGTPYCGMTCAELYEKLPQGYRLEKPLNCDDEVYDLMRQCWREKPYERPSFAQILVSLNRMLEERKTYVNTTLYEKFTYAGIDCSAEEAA

[20] = target: Protein kinase C alpha type (Homo sapiens) (UniProt P17252); test: Inhibition of recombinant full length human PRKCA expressed in baculovirus at 500 nM by Z'-LYTE assay
[21] = target: Protein kinase C beta type (Homo sapiens) (UniProt P05771); test: Inhibition of recombinant full length human PRKCB1 expressed in baculovirus at 500 nM by Z'-LYTE assay
[22] = target: Tyrosine-protein kinase JAK2 (Homo sapiens) (UniProt O60674); test: Inhibition of GST tagged recombinant human JAK2 (809 to 1153 + 9 residues) expressed in baculovirus at 500 nM by Z'-LYTE assay
[23] = target: Serine/threonine-protein kinase pim-2 (Homo sapiens) (UniProt Q9P1W9); test: Inhibition of GST tagged recombinant full length human PIM2 expressed in baculovirus at 500 nM by Z'-LYTE assay

Sequence of Tyrosine-protein kinase Blk (Homo sapiens) (P51451 2-505 limits assumed): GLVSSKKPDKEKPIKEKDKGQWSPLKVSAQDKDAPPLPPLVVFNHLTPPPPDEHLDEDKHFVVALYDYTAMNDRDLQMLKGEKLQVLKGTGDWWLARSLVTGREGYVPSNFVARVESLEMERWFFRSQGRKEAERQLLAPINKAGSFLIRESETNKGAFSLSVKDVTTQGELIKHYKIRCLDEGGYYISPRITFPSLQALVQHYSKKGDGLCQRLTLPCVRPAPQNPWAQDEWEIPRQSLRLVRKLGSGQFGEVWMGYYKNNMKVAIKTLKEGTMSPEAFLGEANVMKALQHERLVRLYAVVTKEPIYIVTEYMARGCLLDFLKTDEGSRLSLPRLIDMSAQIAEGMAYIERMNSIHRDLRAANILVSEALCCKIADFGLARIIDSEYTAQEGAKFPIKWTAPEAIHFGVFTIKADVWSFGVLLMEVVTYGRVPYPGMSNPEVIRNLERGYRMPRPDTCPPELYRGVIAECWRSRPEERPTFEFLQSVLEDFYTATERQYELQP

| inhibition [1] [%] | inhibition [2] [%] | inhibition [3] [%] | inhibition [4] [%] | inhibition [5] [%] | inhibition [6] [%] | inhibition [7] [%] | inhibition [8] [%] | inhibition [9] [%] | inhibition [10] [%] | inhibition [11] [%] | inhibition [12] [%] | inhibition [13] [%] | inhibition [14] [%] | inhibition [15] [%] | inhibition [16] [%] | inhibition [17] [%] | inhibition [18] [%] | inhibition [19] [%] | inhibition [20] [%] | SMILES | further results |
| --- | --- | --- | --- | --- | --- | --- | --- | --- | --- | --- | --- | --- | --- | --- | --- | --- | --- | --- | --- | --- | --- |
| 30 | 0 | 9 | 78 | 34 | 15 | 56 | 4 | 21 | 12 | 7 | 37 | 46 | -1 | 16 | 6 | 17 | 2 | 8 |  | C[C@@H](Nc1ncnc2oc(-c3ccc(NCCN4CCCCC4)cc3)cc12)c1ccccc1 |  |
|  |  |  |  |  |  |  |  |  |  |  |  |  |  |  |  |  |  |  | 2 | C#Cc1cccc(Nc2ncnc3cc(OCCOC)c(OCCOC)cc23)c1 | inhibition [21]: -2% |
| 37 | 3 | 8 | 79 | 26 | 23 | 60 | 4 | 31 | 13 | 19 | 35 | 41 | -3 | 15 | 1 | 12 | -1 | 9 | -9 | C[C@@H](Nc1ncnc2oc(-c3ccc(NCCN(C)C)cc3)cc12)c1ccccc1 | inhibition [22]: -8%; inhibition [23]: -3%; inhibition [21]: -10% |
